Results as given in patent EP4364730A1, “PHARMACEUTICAL COMPOSITION COMPRISING L-ACETYL CARNITINE AND BETA-CARYOPHYLLENE” (Chiesi Italia S.p.A., priority 2022, dated 2024).

System: HMC3 cell line
Test: Cell viability test (MTT assay)
Assay type: cell-based, Homo sapiens, human
Details: HMC3 cells, tested 0.039 to 100 µM
Experimental: The American Type Culture Collection's HMC3 (CRL-3304) cell line was grown in the MEM growth medium supplemented with 10% fetal bovine serum (FBS), 100 U/mL penicillin, and 100 µg/mL streptomycin (complete medium). The cells were kept at 37 °C in a 5% CO2 incubator and grown up to 100% confluence before use. In particular, regarding BCP, cells were treated with this substance at concentrations ranging from 0.039 to 100 µM (9 concentrations). Regarding LAC, cells were treated with this substance at concentrations ranging from 0.06 to 30 mM (9 concentrations). […] The MTT cell viability test was performed by seeding 1 × 10^4 cells/well in a 96-multiwell and grown at 37 °C and 5% CO2. The next day, cells were treated with different concentrations of BCP and LAC and their combinations (Mix). […] The formazane crystals were then solubilized with 100 µL DMSO/well for 15 min and the absorbance was measured at the wavelength of 570 nm using a Multiskan™ GO microplate reader (Thermo Scientific Microplate Spectrophotometer). Finally, the cytotoxicity of the substances in combination was evaluated starting from the maximum non-cytotoxic concentrations of each molecule (BCP and LAC alone) (Table 1).

## C=C1CC/C=C(\C)CC[C@@H]2[C@@H]1CC2(C)C [BCP, (1R,4E,9S)-4,11,11-trimethyl-8-methylidenebicyclo[7.2.0]undec-4-ene]
  maximum non-cytotoxic concentration: 100 µM
